In patent US20080269202A1, “Novel 2,3-benzodiazepine derivatives and their use as antipsychotic agents” (Teva Pharmaceutical Industries Ltd., priority 2007, published 2008):
Where two headings read alike, the source gives them in different places.

Key:
[1] = target: central dopaminergic receptors (Rattus norvegicus, UniProt P61169); experiment: in vitro binding profile to central dopaminergic receptors (Table 3); settings: rat striatal membranes, ligand [3H]sulpirid; read-out: D2 binding
From the text: (§1) The new 2,3-benzodiazepine atypical antipsychotic agents of formula (I) of the present invention influence dopaminergic neurotransmission by a unique indirect fashion, differently from both the first and second generation antipsychotics. The in vitro binding profile of these compounds (Table 3) differs from that of the first generation antipsychotics which bind to dopaminergic receptors and second generation antipsychotics, representatives of which show affinity for dopaminergic, serotonergic, or adrenergic receptors.

[2] = target: central dopaminergic receptors (Homo sapiens, UniProt P35462); experiment: as above; settings: human recombinant CHO cells, ligand [3H]spiperone (footnote prints D2); read-out: D3 binding
Chain of central dopaminergic receptors (Homo sapiens, UniProt P35462) (P35462 whole entry): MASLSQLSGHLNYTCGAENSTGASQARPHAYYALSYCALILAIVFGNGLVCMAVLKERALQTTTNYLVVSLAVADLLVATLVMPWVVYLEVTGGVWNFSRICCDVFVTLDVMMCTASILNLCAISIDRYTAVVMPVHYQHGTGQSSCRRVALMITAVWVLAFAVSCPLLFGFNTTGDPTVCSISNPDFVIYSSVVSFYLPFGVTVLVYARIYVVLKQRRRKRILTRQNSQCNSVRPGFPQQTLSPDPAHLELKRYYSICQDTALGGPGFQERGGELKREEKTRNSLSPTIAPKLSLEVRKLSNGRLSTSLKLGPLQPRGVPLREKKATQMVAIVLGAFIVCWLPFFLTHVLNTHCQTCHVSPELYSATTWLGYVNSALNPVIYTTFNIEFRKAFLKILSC
From the text: as §1

[3] = target: T1, central dopaminergic receptors (Homo sapiens, UniProt P21917); experiment: as above; settings: human recombinant CHO-K1 cells, ligand [3H]spiperone; read-out: D4 binding
T1 sequence (P21917 1-419): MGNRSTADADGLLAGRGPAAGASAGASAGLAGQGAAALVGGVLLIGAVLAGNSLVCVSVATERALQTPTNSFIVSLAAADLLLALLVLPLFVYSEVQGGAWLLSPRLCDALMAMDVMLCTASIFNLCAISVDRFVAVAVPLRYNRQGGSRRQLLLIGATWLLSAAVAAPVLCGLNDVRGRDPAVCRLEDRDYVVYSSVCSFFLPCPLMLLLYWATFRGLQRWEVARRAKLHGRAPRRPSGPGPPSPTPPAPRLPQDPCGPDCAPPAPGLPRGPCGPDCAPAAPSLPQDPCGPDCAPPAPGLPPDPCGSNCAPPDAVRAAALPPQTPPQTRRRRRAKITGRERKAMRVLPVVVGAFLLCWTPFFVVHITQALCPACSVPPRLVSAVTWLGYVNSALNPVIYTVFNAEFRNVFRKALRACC
From the text: as §1

[4] = test system: apomorphine-induced climbing; experiment: apomorphine-induced climbing test in mice; format: in vivo, CD1 mice; settings: Mus musculus, read-out: Climbing ED50 (mg/kg ip.)
Experimental: Anti-apomorphine effects were investigated in the climbing test in mice mediated through the mesolimbic and stereotypy test in rats mediated through the nigrostriatal system. Conventional antipsychotics antagonize both apomorphine-induced behaviours, while known atypical antipsychotics are weaker against apomorphine stereotypy.
The climbing test was carried out according to Protais et al. (Protais, P. et al. Psychopharmacologia, 1976, 50, 1.) Stereotyped behavior was induced in food deprived (for 16 hours) male CD1 mice weighing 20-25 g body by apomorphine HCl (SIGMA) in a s.c. dose of 2 mg/kg. Mice were placed individually into cylinders having 12 cm diameter and consisting of vertical bars of 2 mm diameter where apomorphine treated animals tended to adopt a vertical position in contrary to vehicle treated controls. Test substances were applied ip. 30 min before apomorphine.
10 and 20 min after apomorphine treatment the climbing behaviour was evaluated by scores of 0-2. 10 mice/group were used. The scores of the two readings were summed individually, meaned and compared to the control. The ED50 values were calculated by Litchfield-Wilcoxon's method (Litchfield Jr. J. T., Wilcoxon, F. J. Pharmacol. Exp. Ther. 1949, 96, 49,).

serotonergic receptors [5] = target: T2, serotonergic receptors (Rattus norvegicus, UniProt P14842); experiment: in vitro binding profile to serotonergic receptors (Table 3); settings: rat cerebral cortical membranes, ligand [3H]ketanserin; read-out: 5HT2A binding
T2 construct: other: rat cerebral cortical membranes, ligand [3H]ketanserin
T2 sequence (P14842 whole entry): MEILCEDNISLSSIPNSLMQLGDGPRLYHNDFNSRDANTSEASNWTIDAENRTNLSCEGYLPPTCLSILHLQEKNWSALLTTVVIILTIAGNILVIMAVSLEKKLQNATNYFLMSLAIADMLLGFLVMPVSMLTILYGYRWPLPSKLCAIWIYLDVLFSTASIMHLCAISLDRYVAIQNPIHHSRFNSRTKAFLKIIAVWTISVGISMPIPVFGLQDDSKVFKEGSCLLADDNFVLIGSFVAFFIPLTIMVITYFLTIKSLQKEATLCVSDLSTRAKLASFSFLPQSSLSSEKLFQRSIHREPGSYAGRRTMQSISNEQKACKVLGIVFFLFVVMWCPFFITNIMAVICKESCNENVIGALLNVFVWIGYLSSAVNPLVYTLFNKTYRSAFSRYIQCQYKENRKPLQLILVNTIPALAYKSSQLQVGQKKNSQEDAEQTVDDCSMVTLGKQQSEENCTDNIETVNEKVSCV
From the text: as §1

serotonergic receptors [6] = target: T3, serotonergic receptors (Rattus norvegicus, UniProt P19327); experiment: as above; settings: rat hippocampal membranes, ligand [3H]-8-OH-DPAT; read-out: 5HT1A binding
T3 construct: other: rat hippocampal membranes, ligand [3H]-8-OH-DPAT
T3 sequence (P19327 1-422): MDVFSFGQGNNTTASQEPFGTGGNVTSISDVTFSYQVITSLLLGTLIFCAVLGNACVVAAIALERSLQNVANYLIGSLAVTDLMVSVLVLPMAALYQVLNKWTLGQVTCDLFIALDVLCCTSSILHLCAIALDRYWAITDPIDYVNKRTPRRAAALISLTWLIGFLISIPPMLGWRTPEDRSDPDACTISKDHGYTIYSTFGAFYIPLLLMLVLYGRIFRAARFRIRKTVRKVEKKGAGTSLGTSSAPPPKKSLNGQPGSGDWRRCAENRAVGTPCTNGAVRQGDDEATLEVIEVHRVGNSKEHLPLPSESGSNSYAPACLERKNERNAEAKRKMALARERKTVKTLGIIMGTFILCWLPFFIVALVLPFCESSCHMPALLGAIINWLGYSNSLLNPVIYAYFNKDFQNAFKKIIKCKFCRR
From the text: as §1

[7] = test system: conditioned avoidance responses; experiment: conditioned avoidance: pole jumping test in rats; format: in vivo, Long-Evans rats
From the text: For measuring the antipsychotic potential in a non-perturbed dopamine system the pole jumping assay was used (Cook, L., Catania, A. C. Fed. Proc. 1964, 23, 818.)
This method is an active avoidance learning test. Long-Evans rats, weighing 250-450 g, were used in the experiments. Rats are placed in a box (25×25×25 cm) on a grid floor in the center of which there is a pole. After a latency period, light is turned on for a given time then the floor is electrified to deliver an unpleasant footshock. Rats may learn to avoid the shock by jumping up to grasp the pole. As soon as the rat jumps up the light and shock are turned off. Each light-on period lasted for 15 s, shock time for 30 s with an intertrial interval of 15 s. 30 such trials per day were repeated during the learning period until animals reach a minimum of 80% avoidance rate. During the experimental sessions 20 trials/day were run. Test substances were administered ip. in a volume of 0.25 ml/100 g body weight. Significances were calculated by Student's t test.

catalepsy = catalepsy test in rats; format: in vivo, CDBR rats; settings: sum of 8 readings over 4 hours
From the text: In order to investigate the potential side effect profile, the catalepsy test in rats has been carried out according to Costall and Naylor (Costall, B., Naylor, R. J. Arzneimittelforschung/Drug Res., 1973, 23, 674).
Catalepsy is defined as a failure to correct an externally imposed, unusual posture over a prolonged time. Neuroleptics which have direct inhibitory action on the nigrostriatal dopamine system induce catalepsy. It may be reflected by the Parkinson-like extrapyramidal symptoms seen clinically with administration of classical antipsychotics. The experiments were carried out in male CDBR rats weighing 300-400 g. The volume of administration was 0.25 ml/100 g body weight. The animals were starved for 16 hours before treatment, water was delivered ad libitum. After intraperitoneal administration of the test substances, the forepaws of the rats were placed on a horizontal stainless steel bar elevated to 10 cm high, while the hind paws remained on a metal plate. The semi-automatic 5-channel catalepsy meter measured the time spent in this unusual posture by an electronic stop-clock. The catalepsy time was scored from 0 to 5 according to the time spent in the unusual posture. […] Means of groups were calculated.

[8] = mice, ip. 30 min before apomorphine 2 mg/kg s.c.

Chain of central dopaminergic receptors (Rattus norvegicus, UniProt P61169) (P61169 whole entry): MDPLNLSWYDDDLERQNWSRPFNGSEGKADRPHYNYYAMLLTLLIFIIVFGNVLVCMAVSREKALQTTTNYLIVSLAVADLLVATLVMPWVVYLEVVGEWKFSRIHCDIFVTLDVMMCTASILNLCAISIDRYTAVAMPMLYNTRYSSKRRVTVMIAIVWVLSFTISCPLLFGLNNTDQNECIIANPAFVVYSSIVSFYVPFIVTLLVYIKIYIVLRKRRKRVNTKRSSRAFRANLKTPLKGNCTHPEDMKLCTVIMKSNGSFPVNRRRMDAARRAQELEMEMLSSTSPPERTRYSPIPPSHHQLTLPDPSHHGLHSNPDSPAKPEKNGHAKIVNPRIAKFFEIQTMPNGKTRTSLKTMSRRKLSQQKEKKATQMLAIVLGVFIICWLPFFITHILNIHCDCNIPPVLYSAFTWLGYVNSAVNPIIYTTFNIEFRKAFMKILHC

| Compound | Ki [1] | Ki [2] | Ki [3] | ED50 [4, 8] | Ki (serotonergic receptors [5]) | Ki (serotonergic receptors [6]) | MED (mg/kg ip), minimal effective dose (stat. sign.) [7] | Catalapsy scores (catalepsy; dose 40 mg/kg ip) | Catalapsy scores (catalepsy; dose 10 mg/kg ip) | ED50 [4] |
| --- | --- | --- | --- | --- | --- | --- | --- | --- | --- | --- |
| COc1cc2c(cc1OC)C(c1ccc(N)c(C)c1)=NN(c1ncon1)[C@H](C)C2 [Example 104] | > 10 µM | > 10 µM | > 10 µM | 7.7 mg/kg | > 10 µM | > 10 µM | 15 mg/kg | 40:0 | – | – |
| COc1cc2c(cc1OC)C(c1ccc(N)c(C)c1)=NN(c1nncs1)[C@H](C)C2 [Example 110] | > 10 µM | > 10 µM | > 10 µM | 14.6 mg/kg | > 10 µM | > 10 µM | 2 mg/kg | – | 10:0.375 | – |
| CNC(=O)N1N=C(c2ccc(N)cc2)c2cc(OC)c(OC)cc2C[C@H]1C [Example 121] | > 10 µM | > 10 µM | > 10 µM | – | > 10 µM | > 10 µM | 5 mg/kg | – | 10:0 | 4.31 mg/kg |
| CNC(=O)N1N=C(c2ccc(N)c(C)c2)c2cc(OC)c(OC)cc2C[C@H]1C [Example 123] | > 10 µM | > 10 µM | > 10 µM | – | > 10 µM | > 10 µM | 2 mg/kg | 40:0 | – | 9.2 mg/kg |
